These results are taken from US12138256B2, “Treatment of cardiopulmonary disorders” (Bayer Aktiengesellschaft, priority 2021, dated 2024).

Data set [1] deals with anesthetized PAH minipigs. As to the kind of experiment: PAH minipig model: intratracheal application of dry powder formulations and different hydrates (PennCentury insufflator). The settings on record: intratracheal lactose formulation; lower doses not applicable. It is filed as in vivo, Göttingen minipig. From the text:
After characterization of the effects of comparative example 11 after nebulization of compound solutions, in a further step the effects of crystalline forms of comparative example 11, e.g. sesquihydrate, e.g. example 6e on PAP and BP after inhaled application of different dry powder lactose formulations (table C2.1.8) were studied in anesthetized PAH minipigs.
As reference pure Lactose vehicle was applied in the beginning of each experiment.

A short description of data set [2]: Caco-2 permeability test (C-5.1). In kind it is in vitro ADME, human. As to conditions: human. The procedure:
The in vitro permeation of a test compound across a Caco-2 cell monolayer is a well-established assay system to predict the permeability from the gastro-intestinal tract (1). The permeability of the compounds of the present invention in such Caco-2 cells was determined as described below:
Human caco-2 cells were seeded on 24-well insert plates and were allowed to grow for 14-16 days. For permeability studies, the test compounds were dissolved in DMSO and diluted to the final test concentration of 2 μM with transport buffer [Hanks' Buffered Salt Solution, Gibco/Invitrogen, further supplemented with glucose and HEPES]. For determination of the apical to basolateral permeability (PappA-B), the test compound solution was added to the apical side of the cell monolayer and transport buffer to the basolateral side of the monolayer; for determination of the basolateral to apical permeability (PappB-A), the test compound solution was added to the basolateral side of the cell monolayer and transport buffer to the apical side of the monolayer. Samples were taken from the donor compartment at the beginning of the experiment to confirm mass balance. After an incubation of 2 h at 37° C., samples were taken from both compartments. Samples were analyzed by LC-MS/MS, and the apparent permeability coefficients were calculated. Lucifer Yellow permeability was assayed for each cell monolayer to ensure cell monolayer integrity, and the permeability of Atenolol (low permeability marker) and Sulfasalazine (marker for active excretion) was determined for each batch as quality control.

The nature of data set [3]: Protein binding via Transil assay, plasma of all species investigated (C-5.2). It is filed as in vitro ADME. The settings on record: Wistar (rat), Beagle (dog), plasma (Transil beads), read-out: free fractions. From the text: (§1) The distribution of a test substance between Transil® (phosphatidylcholine lipid bilayers immobilized on silica beads) and plasma is a characteristic feature of any pharmaceutical compound and is dependent on its extent of binding to plasma proteins. By comparing the distribution between Transil® and buffer with the distribution between Transil® and plasma of any species of interest, the unbound fraction in the plasma of the respective animal species can be calculated in vitro. The respective plasma and buffer concentrations were determined via a radioactivity analysis. A detailed description of the method and its validation was published by Schuhmacher et al. (2).

Data set [4] in a line: Protein binding via Transil assay, human plasma. In kind it is in vitro ADME.
From the text: as §1

A short description of data set [5]: Protein binding via Transil assay, rat plasma. In kind it is in vitro ADME. The settings on record: Rat Wistar plasma, Transil assay.
From the text: as §1

On to `O=C(O)c1ccc(CCN(CCc2ccccc2OCc2ccc(-c3ccc(C(F)(F)F)cc3)cc2Cl)[C@H]2CCCc3nc(C(=O)O)ccc32)cc1` [comparative example 11, (5S)-5-{[2-(4-carboxyphenyl)ethyl][2-(2-{[3-chloro-4′-(trifluoromethyl)[biphenyl]-4-yl]methoxy}phenyl)ethyl]amino}-5,6,7,8-tetrahydroquinoline-2-carboxylic acid], for which the “MED (dry powder)” value in data set [1] was less than 7.5 µg/kg. Moreover, the apparent permeability (Papp) (commonly a coefficient for how fast a substance crosses the barrier) at 2 h, 2 μM in data set [2] (Caco-2, 2 μM, 2 h at 37° C.) was 15.1 nm/s. The efflux ratio (usually a quotient of directional permeabilities that is used to spot active efflux) at 2 h, 2 μM in data set [2] (Caco-2 (2 μM)) was found to be 0.64 ± 0.1. Also, the Papp A→B at 2 h, 2 μM in data set [2] (Caco-2 (2 μM), concentration per compound 2.0 or 2.4 μM, read-out: Papp A-B (mean +/− SD)) amounted to 15.1 ± 1.7 nm/s. Besides, in data set [2] (Caco-2 (2 μM), concentration per compound 2.0 or 2.4 μM, read-out: Papp B-A (mean +/− SD)), the Papp B→A at 2 h, 2 μM came to 9.7 ± 0.6 nm/s. The fraction unbound was less than 0.01 in data set [3]; 0.000764 in data set [4] (Human (male) plasma, Transil assay, read-out: Fraction unbound); 0.000764 in data set [4] (plasma (Transil beads), human plasma, read-out: plasma fu (fraction unbound)); 0.00224 in data set [5].
